This note sets out measurements from ChEMBL document CHEMBL5321296, “Structure-Based Ligand Discovery Targeting the Transmembrane Domain of Frizzled Receptor FZD7” (J Med Chem, 2023).

Calls of active or inactive are those of the source. The rule behind the calls is not given here.

For one assay, the target named is Frizzled-7 (Homo sapiens, UniProt O75084). Put plainly: Antagonist activity at his-tagged FZD7 transmembrane domain (unknown origin) assessed as dissociation constant by SPR analysis.
In assay [1] the target is Protein smoothened (Homo sapiens) (UniProt Q99835). Description: Binding affinity to SMO (unknown origin) assessed as dissociation constant by SPR analysis. Background: Surface plasmon resonance follows binding to a sensor surface in real time, without labels.
Chain of Protein smoothened (Homo sapiens) (Q99835 whole entry): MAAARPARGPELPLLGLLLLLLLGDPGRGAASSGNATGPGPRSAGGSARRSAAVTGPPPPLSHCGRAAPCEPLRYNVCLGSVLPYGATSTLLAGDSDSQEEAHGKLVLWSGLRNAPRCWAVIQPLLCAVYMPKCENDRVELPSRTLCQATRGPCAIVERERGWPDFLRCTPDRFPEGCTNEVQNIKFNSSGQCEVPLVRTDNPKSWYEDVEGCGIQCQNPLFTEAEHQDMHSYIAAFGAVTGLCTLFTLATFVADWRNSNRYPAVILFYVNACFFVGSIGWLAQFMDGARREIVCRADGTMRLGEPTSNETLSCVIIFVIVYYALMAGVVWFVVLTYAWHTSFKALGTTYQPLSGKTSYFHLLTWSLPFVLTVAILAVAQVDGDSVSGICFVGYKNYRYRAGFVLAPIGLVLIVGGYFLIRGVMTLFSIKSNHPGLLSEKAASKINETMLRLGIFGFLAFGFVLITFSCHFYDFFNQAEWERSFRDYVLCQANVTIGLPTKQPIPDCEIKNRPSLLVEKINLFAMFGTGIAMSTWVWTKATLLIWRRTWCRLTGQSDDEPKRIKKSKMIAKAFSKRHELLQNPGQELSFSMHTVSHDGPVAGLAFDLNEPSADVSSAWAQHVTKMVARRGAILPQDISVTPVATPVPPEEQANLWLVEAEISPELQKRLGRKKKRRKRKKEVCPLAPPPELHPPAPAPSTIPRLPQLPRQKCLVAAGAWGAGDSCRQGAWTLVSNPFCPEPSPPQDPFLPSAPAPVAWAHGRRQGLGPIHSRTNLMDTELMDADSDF
Assay [2] can be described thus: Inhibition of Wnt/beta-catenin signalling in Wnt3a stimulated human HEK293 cells assessed as reduction in luciferase activity incubated for 24 hrs by TOPFlash luciferase reporter assay. The format is cell-based. To be noted: HEK293, 24 h. On the technique in general: A reporter such as luciferase makes a cellular process visible.

In the case of `O=C(CSc1ccc(NC(=O)c2ccc(F)cc2)cc1)Nc1nc(-c2ccccc2)cs1`, the Kd – broadly, the free concentration of one partner at which half of the binding sites on the other are occupied at equilibrium, for simple one-to-one binding – on Frizzled-7 was determined as 160 nM. Also, the result in assay [1] was inactive. The half-maximal inhibitory concentration (IC50) (in general, the point on the concentration scale where inhibition reaches its midpoint) in assay [2] amounted to 1280 nM.
For the compound `Cc1ccc(C(=O)Nc2ccc(SCC(=O)Nc3nc(-c4ccccc4)cs3)cc2)cc1`, in assay [2], the IC50 worked out at 230 nM.
As to `Cc1ccc(C(=O)Nc2ccc(SCC(=O)Nc3nc(-c4ccccc4)cs3)cc2)c(C)c1`, in assay [2], the 50% inhibitory concentration (IC50) was 40 nM.
